Experimental data: patent US20220010283A1, “METHOD FOR PRODUCING PLURIPOTENT STEM CELL HAVING RELEASED DIFFERENTIATION RESISTANCE TO MESENDODERM” (Kyoto University, priority 2018, published 2022)

Assays:
human iPS cell line AK5 = assay: Intracellular staining and flow cytometry of pluripotency markers SOX2 and OCT3/4; format: cell-based; conditions: PSCs maintained in LM511 with CHIR99021 added; immediately before initiation of differentiation (FIG. 7)
Protocol: To detect pluripotency markers SOX2 and OCT3/4, intracellular staining was performed by flow cytometry. Briefly, dead cell staining was performed using Zombie (trade s mark) Aqua Fixable Viability Kit (BioLegend, San Diego, Calif., USA). After washing, the cells were fixed by allowing to stand for 15 min at room temperature with PerFix-nckit Reagent1. Successively, the cells were subjected to a permeation treatment by fixing with ice-cooled 100% methanol for 5 min, and incubating for 10 min at room temperature with 0.5% saponin. The cells were washed and suspended in PBS (containing 3% FBS), V450 Mouse anti-Sox2 and Alexa Fluor (registered trade mark) 488 conjugated Mouse anti-OCT3/4 (BD biosciences, Bedford, Mass., USA) was added, and the mixture was incubated on ice for 30 min. Excessive antibody was washed away and analysis was performed with FACSVerse (trade mark) (BD Biosciences).

[1] = system: human iPS cell line AK5 (hPSC1); assay: Differentiation into hematopoietic progenitor cells by the PSC-Sac method (CD34+CD43+ cell count); format: cell-based; conditions: PSCs maintained on LM511, CHIR99021 6 nM added from 4, 3, 2 or 1 day before start of differentiation induction; vs DMSO (FIG. 2)
Protocol: PSCs were cultured according to the previous report on various laminin E8 fragments under feeder-free conditions (Nakagawa et al., Scientific Reports, 4: 3954, 2014). Among the recombinant laminin E8 fragments used, LM511 E8 was iMatrix-511/iMatrix-511 silk (Nippi, Ibaraki, Japan), and other laminin E8 (LM421/121) fragments were provided by Dr. Kiyotoshi Sekiguchi (Institute for Protein Research, Osaka University). Each laminin fragment was added to 0.5 μg/cm^2 relative to the dish bottom area. In the laminin dilution experiment, coating was performed in the same manner as described above under the conditions of [x½], [x¼], [x⅛], [x 1/16], wherein [x1] is Laminin 511E8 0.5 μg/cm^2 condition. […]
As a method for performing blood cell differentiation from PSCs, the PSC-Sac method, which is a co-culture method with mouse interstitial cell C3H10TR, was used (Takayama and Eto Methods Mol Biol. 2012; 788:205-17, Takaayama et al. J Exp Med. 2010 207(13): 2817-2830). […] After confirmation of the absence of intercellular adhesion, the cells were detached from the dish with Cell scraper, and the number of the cells was counted with Trypan Blue and a hemocytometer. […]
The number of the cells was counted with Trypan Blue and a hemocytometer. […] For the measurement of hPSCs, TRA-1-60 positive cells were measured. […]

Cc1c[nH]c(-c2cnc(NCCNc3ccc(C#N)cn3)nc2-c2ccc(Cl)cc2Cl)n1 [CHIR99021, 6-[2-[4-(2,4-Dichlorophenyl)-5-(4-methyl-1H-imidazol-2-yl)pyrimidin-2-ylamino]ethylamino]pyridine-3-carbonitrile]
number of cells maintaining positive pluripotency for both OCT3/4 and SOX2 (human iPS cell line AK5): decreased | number of hematopoietic progenitor cells [1]: the number of hematopoietic progenitor cells could be increased
